Measured values taken from US20070191451A1, “USE OF BENZO-HETEROARYL SULFAMIDE DERIVATIVES AS NEUROPROTECTIVE AGENTS” (priority 2006, published 2007).

Legend:
[1] = tested on: Rat Cerebral Cortical Cultures; assay: Cell Titer Glo/Cell Viability in vitro assay, rat cerebral cortical cultures, insult with 150 μM H2O2; assay type: cell-based; conditions: for Cell Titer Glo/Cell Viability, Mean: mean of 3 plates
Procedure: (§1) The assay was run according to the procedure listed within the insert of the kit purchased from Promega (see attachment at the end of the application).
(§2) Cell cultures were prepared as follows. Dissociated hippocampal and cortical cell cultures were established from embryonic day 18 rat fetuses. The fetuses were removed via cesarean section from pregnant dams (Harlan Sprague-Dawley) anesthetized with halothane according to the AVMA Panel on Euthanasia. Pups were decapitated and the brains were removed and placed in Hank's Balanced Salt solution (1×HBSS; Gibco, Rockville, Md.). The hippocampi and cortices were dissected out and pooled according to tissue-type. Tissue was trypsinized for 15 min (1 mg/ml trypsin-HBSS; Worthington, Lakewood, N.J.), rinsed with fresh HBSS, incubated in trypsin inhibitor (1 mg/ml; Sigma, St. Louis, Mo.) for 5 min, rinsed again with fresh HBSS and then triturated in 1 ml fresh HBSS with a fire-polished glass pipette. Dissociated cells were seeded at 10,000 cells/well onto poly-D-lysine coated 96-well plates (BD BioScience, Bedford, Mass.) containing 100 ul/well Eagle's Minimal Essential Media (MEM; Gibco) supplemented with 26 mM NaHCO3 (Sigma), 40 mM glucose (Sigma), 20 mM KCl (Sigma), 1 mM sodium pyruvate (Sigma), 10% (v/v) heat-inactivated fetal bovine serum (Hyclone, Logan, Utah), and 0.001% gentamicin sulfate (Sigma) (pH 7.4). Serum-free cultures were plated and maintained in Neurobasal medium+B27 supplement (Gibco). Cells were allowed to attach for 24h in a humidified 37° C. 5% CO2 incubator before experimental treatment.
(§3) Test compounds were prepared as follows: A 10 mM stock in DMSO of each compound was diluted 1:50 in DPBS rendering a final stock of 200 μM. […] Equal amounts of vehicle or diluted compound were added to each culture well.
(§4) A 30% stock solution of hydrogen peroxide (H2O2; Sigma) was diluted with DPBS 1:100 to yield a […] stock. Five microliters of vehicle or H2O2 stock solution was added to each 100 ul culture well to yield a final concentration of 150 uM.
(§5) Note that in the data listed below, each plate was run in triplicate for a total of n=9.

[2] = tested on: Rat Hippocampal Cultures; assay: Cell Titer Glo/Cell Viability in vitro assay, rat hippocampal cultures, insult with 150 μM H2O2; assay type: cell-based; conditions: for Cell Titer Glo/Cell Viability / Cell Titer Glo/Cell Viability, Mean: insult with 150 μM H2O2; for Cell Titer Glo/Cell Viability, Mean: mean of 3 plates, n=9
Procedure: as §1, §2, §3, §4, §5

[3] = compound 0.1 μM, Plate 1 (run in triplicate)
[4] = compound 0.1 μM, Plate 2 (run in triplicate)
[5] = compound 0.1 μM, Plate 3 (run in triplicate)
[6] = compound 1 μM, Plate 1 (run in triplicate)
[7] = compound 1 μM, Plate 2 (run in triplicate)
[8] = compound 1 μM, Plate 3 (run in triplicate)
[9] = compound 10 μM, Plate 1 (run in triplicate)
[10] = compound 10 μM, Plate 2 (run in triplicate)
[11] = compound 10 μM, Plate 3 (run in triplicate)

NS(=O)(=O)NCc1csc2ccc(F)cc12 [Compound #8, N-[(5-fluorobenzo[b]thien-3-yl)methyl]-sulfamide]
Cell Titer Glo/Cell Viability [1, 3]: 16
Cell Titer Glo/Cell Viability [1, 4]: 43
Cell Titer Glo/Cell Viability [1, 5]: 19
Cell Titer Glo/Cell Viability, Mean ([1]; compound 0.1 μM, n=9): 26
Cell Titer Glo/Cell Viability [1, 6]: 13
Cell Titer Glo/Cell Viability [1, 7]: 24
Cell Titer Glo/Cell Viability [1, 8]: 12
Cell Titer Glo/Cell Viability, Mean ([1]; compound 1 μM, n=9): 16
Cell Titer Glo/Cell Viability [1, 9]: 22
Cell Titer Glo/Cell Viability [1, 10]: 27
Cell Titer Glo/Cell Viability [1, 11]: 30
Cell Titer Glo/Cell Viability, Mean ([1]; compound 10 μM, n=9, *p < 0.05 (Kruskal-Wallis, Dunn's post-hoc)): 26*

NS(=O)(=O)NCc1csc2ccccc12 [Compound #1, N-(benzo[b]thien-3-ylmethyl)-sulfamide]
protecting neurons from death and/or damage from oxidative stress or oxidative injury ([2]; conclusion in words from the data of Tables 4 and 5, H2O2 insult): effective at protecting neurons from death and/or damage
Cell Titer Glo/Cell Viability [2, 3]: 28
Cell Titer Glo/Cell Viability [2, 4]: 16
Cell Titer Glo/Cell Viability [2, 5]: 17
Cell Titer Glo/Cell Viability, Mean ([2]; compound 0.1 μM): 20
Cell Titer Glo/Cell Viability [2, 6]: 30
Cell Titer Glo/Cell Viability [2, 7]: 12
Cell Titer Glo/Cell Viability [2, 8]: 13
Cell Titer Glo/Cell Viability, Mean ([2]; compound 1 μM): 18
Cell Titer Glo/Cell Viability [2, 9]: 41
Cell Titer Glo/Cell Viability [2, 10]: 46
Cell Titer Glo/Cell Viability [2, 11]: 45
Cell Titer Glo/Cell Viability, Mean ([2]; compound 10 μM, **p < 0.01 (Kruskal-Wallis, Dunn's post-hoc)): 44**
